Test systems include SNB-75; HL-60; IGROV-1; K562; NCI/ADR-RES; RXF 393; DU-145; SN12C; MCF7; HT-29; CAKI-1; LOX IMVI; SF-295; A498; A549; MDA-MB-231; HOP-92; NCI-H522; EKVX; SF-268.
Holding throughout (assay): inhibition of tumour cell growth, NCI panel, 48 h

Several values for one entry are separate records, joined by “and”; a condition that tells them apart may be missing. Identical values can stand only once.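 Step 1: Grow cells in 96-well plates. Step 2: Expose to compound for 48 hours at 5 concentrations. Step 3: Interpolate endpoints linearly; if unreached, use highest concentration. At the GI50, growth is halved.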 Activity calls are given as the source filed them. Rule as the data show it: active = GI50 up to about 1.1 µM and inactive = higher. Where only a bound is given, the exact number is not on record here.

As to `COc1cc(/C=C2\C(=O)N(c3ccc(NC(C)=O)cc3)C(c3ccccc3)S2(=O)=O)cc(OC)c1OC` (stereo not given), the GI50 in the assay with SNB-75 was 43.6 µM (inactive); in the assay on HL-60 it was 18.3 µM (inactive); in the assay with IGROV-1, > 100 µM (inactive); with K562 it was 39.9 µM (inactive); in the assay on NCI/ADR-RES it was > 100 µM (inactive); in the assay on RXF 393, > 100 µM (inactive). Besides, the GI50 in the assay on DU-145 is > 100 µM (inactive); with SN12C it was > 100 µM (inactive); in the assay on MCF7 it was 45.5 µM (inactive); in the assay on HT-29, > 100 µM (inactive); in the assay with CAKI-1, > 100 µM (inactive); in the assay on LOX IMVI, > 100 µM (inactive). The GI50 in the assay with SF-295 was 78 µM (inactive); in the assay with A498, > 100 µM (inactive); in the assay with A549, > 100 µM (inactive); in the assay on MDA-MB-231, > 100 µM (inactive); in the assay on HOP-92, > 100 µM (inactive); with NCI-H522, > 100 µM (inactive). The GI50 with EKVX is 91.4 µM (inactive).
Regarding `Cc1nc2c(nc1C)-c1c(c3c(n1C)C(=O)CCC3)C(=O)C2=O`, the GI50 in the assay with SNB-75 was 0.931 µM (active); in the assay on HL-60, 0.232 µM (active); in the assay with IGROV-1 it was 0.337 µM (active); with K562, 0.338 µM (active); in the assay on NCI/ADR-RES, 0.547 µM (active); in the assay on SF-268, 0.295 µM (active). Also, the GI50 in the assay with RXF 393 was 0.16 µM (active); with DU-145 it was 0.592 µM (active); in the assay on SN12C, 0.216 µM (active); with MCF7 it was 0.163 µM (active); in the assay with HT-29 it was 1.98 µM (inactive); with LOX IMVI it was 0.186 µM (active). Also, the GI50 with SF-295 was 1.75 µM (inactive); in the assay with A498, 0.984 µM (active); in the assay on A549, 1.3 µM (inactive); with MDA-MB-231 it was 0.264 µM (active); in the assay on HOP-92, 1.29 µM (inactive); in the assay with NCI-H522 it was 0.434 µM (active). Besides, the GI50 in the assay with EKVX was 1.06 µM (active).
For the compound `CC(=O)c1ccc2c(c1)CC1(C2)Cc2ccc3c(c2C1=O)CCC3` (stereo not given), the GI50 with SNB-75 is 20 µM (inactive); with HL-60, 8.26 µM (inactive); in the assay on IGROV-1 it was 55.2 µM (inactive); in the assay on K562, 15 µM (inactive); in the assay on NCI/ADR-RES, 20.1 µM (inactive); in the assay on SF-268 it was 31.2 µM (inactive). In addition, the GI50 in the assay with RXF 393 is 24.7 µM (inactive); in the assay on DU-145 it was 31.3 µM (inactive); with SN12C, 31.8 µM (inactive); with MCF7 it was 22.5 µM (inactive); in the assay on HT-29, 15.2 µM (inactive); in the assay on CAKI-1, 23.2 µM (inactive). Besides, the GI50 was 24.5 µM (inactive) in the assay with LOX IMVI; 31 µM (inactive) in the assay on SF-295; 39.3 µM (inactive) in the assay on A498; 23.4 µM (inactive) in the assay on A549; 35.6 µM (inactive) with MDA-MB-231; 14.2 µM (inactive) in the assay with HOP-92. The GI50 in the assay on NCI-H522 is 19.1 µM (inactive).
Turning to `CSc1ncnc2c1cnn2Cc1cn(COCCO)nn1`, the GI50 in the assay on HL-60 was 40 µM (inactive); in the assay with IGROV-1, 74.8 µM (inactive); in the assay with K562, 38.4 µM (inactive); with NCI/ADR-RES, > 100 µM (inactive); in the assay on SF-268, > 100 µM (inactive); with RXF 393, 46.6 µM (inactive). In addition, the GI50 was 49.3 µM (inactive) with DU-145; 64.6 µM (inactive) in the assay on SN12C; 43.3 µM (inactive) with MCF7; 22.3 µM (inactive) with HT-29; 80.7 µM (inactive) with LOX IMVI; > 100 µM (inactive) with A498. Besides, the GI50 is 51.8 µM (inactive) with A549, > 100 µM (inactive) in the assay on MDA-MB-231 and > 100 µM (inactive) with HOP-92.
For the compound `CCOC(=O)c1sc(N/N=C2\NC(=O)/C(=C/c3ccc([N+](=O)[O-])cc3)S2)nc1C`, the GI50 in the assay on SNB-75 is 25.8 µM (inactive); in the assay on HL-60, 22.8 µM (inactive); with IGROV-1, 14 µM (inactive); in the assay on NCI/ADR-RES, 23.9 µM (inactive); in the assay with SF-268 it was 27.5 µM (inactive); in the assay with RXF 393, 26.8 µM (inactive). Also, the GI50 with DU-145 is 16.8 µM (inactive); in the assay on SN12C it was 30.4 µM (inactive); in the assay with MCF7 it was 22.3 µM (inactive); in the assay on HT-29, 25.2 µM (inactive); with CAKI-1 it was 22.1 µM (inactive); in the assay with LOX IMVI it was 19.8 µM (inactive). Besides, the GI50 in the assay on SF-295 was 20.4 µM (inactive); with A498, 26.1 µM (inactive); in the assay on A549 it was 28.3 µM (inactive); in the assay on MDA-MB-231, 19.5 µM (inactive); in the assay on HOP-92, 16.9 µM (inactive); with NCI-H522 it was 17.7 µM (inactive). Also, in the assay with EKVX, the GI50 is 15.7 µM (inactive).
`CC1(CNCc2ccccc2)CC(CCc2ccccc2)N(C(=O)c2ccc([N+](=O)[O-])cc2)C1Cc1ccc(O)cc1` (stereo not given): the GI50 was 11.3 µM (inactive) in the assay on HL-60; 15 µM (inactive) with IGROV-1; 33.7 µM (inactive) in the assay on K562; 14.7 µM (inactive) in the assay with NCI/ADR-RES; 13.4 µM (inactive) with SF-268; 5.04 µM (inactive) in the assay on RXF 393. Moreover, the GI50 is 14.7 µM (inactive) with DU-145; 6.76 µM (inactive) with SN12C; 5.24 µM (inactive) in the assay with MCF7; 5.65 µM (inactive) with HT-29; 12.9 µM (inactive) in the assay on CAKI-1; 12.6 µM (inactive) in the assay on LOX IMVI. Moreover, the GI50 with SF-295 was 11.2 µM (inactive); in the assay on A498, 12.9 µM (inactive); with A549, 10.4 µM (inactive); with MDA-MB-231 it was 10.3 µM (inactive); in the assay with HOP-92, 2.04 µM (inactive); with NCI-H522, 8.79 µM (inactive). In the assay with EKVX, the GI50 is 14.4 µM (inactive).
As for `COc1cccc(C2c3cc4c(cc3OC3COC(=O)C32)OCO4)c1OC` (stereo not given), the GI50 was 83.9 µM (inactive) in the assay with SNB-75; 9.12 µM (inactive) in the assay with HL-60; > 100 µM (inactive) in the assay on IGROV-1; > 100 µM (inactive) in the assay on NCI/ADR-RES; > 100 µM (inactive) in the assay with SF-268; 83.4 µM (inactive) in the assay with RXF 393. Moreover, the GI50 is > 100 µM (inactive) in the assay with DU-145; > 100 µM (inactive) with SN12C; 83 µM (inactive) in the assay with MCF7; > 100 µM (inactive) with HT-29; 37.6 µM (inactive) in the assay with CAKI-1; > 100 µM (inactive) in the assay on LOX IMVI. Moreover, the GI50 in the assay on SF-295 was > 100 µM (inactive); in the assay on A498 it was > 100 µM (inactive); in the assay on A549, > 100 µM (inactive); in the assay on MDA-MB-231 it was > 100 µM (inactive); in the assay on HOP-92, 99.8 µM (inactive); in the assay with EKVX, > 100 µM (inactive).
As to `C=C(C)CCC1CCCCC(CN(C)C)C1=O` (stereo not given), the GI50 in the assay on SNB-75, with HL-60, in the assay with IGROV-1, in the assay on K562, in the assay with NCI/ADR-RES and with SF-268 was > 100 µM (inactive) each time. Besides, the GI50 is > 100 µM (inactive) with DU-145; > 100 µM (inactive) in the assay on SN12C; 75 µM (inactive) in the assay on MCF7; > 100 µM (inactive) in the assay with HT-29; > 100 µM (inactive) in the assay with CAKI-1; > 100 µM (inactive) with LOX IMVI. For the same compound, the GI50 with SF-295 was > 100 µM (inactive); in the assay with A498, > 100 µM (inactive); in the assay on A549, > 100 µM (inactive); in the assay on MDA-MB-231, > 100 µM (inactive); in the assay on HOP-92, > 100 µM (inactive); in the assay with NCI-H522 it was 10.7 µM (inactive). Besides, the GI50 in the assay with EKVX is > 100 µM (inactive).
With `CSC1=N/C(=C\c2cccs2)C(=O)N1CN1CCOCC1`, the GI50 is 37.5 µM (inactive) in the assay on SNB-75; 0.0465 µM (active) in the assay with HL-60; 41.5 µM (inactive) in the assay with IGROV-1; 43.8 µM (inactive) in the assay on K562; 14.3 µM (inactive) in the assay with NCI/ADR-RES; 42.3 µM (inactive) in the assay with SF-268. For the same compound, the GI50 in the assay on DU-145 is 65.9 µM (inactive); in the assay on SN12C it was 5.2 µM (inactive); in the assay with MCF7 it was 32.2 µM (inactive); in the assay on HT-29, 24.9 µM (inactive); in the assay on LOX IMVI it was 33.1 µM (inactive); in the assay with SF-295 it was > 100 µM (inactive). The GI50 in the assay with A498 was 64.9 µM (inactive); in the assay on A549, > 100 µM (inactive); in the assay with MDA-MB-231, 71.1 µM (inactive); in the assay with HOP-92, 4.82 µM (inactive); in the assay on NCI-H522, 30.1 µM (inactive); in the assay on EKVX it was 40.6 µM (inactive).
As to `N=C(N)N/N=C/c1c(-c2cc([N+](=O)[O-])c(Cl)cc2Cl)nc2sccn12`, the GI50 in the assay with SNB-75 was 0.0155 µM (active); in the assay with HL-60, 2.27 µM (inactive) and 1.53 µM (inactive); in the assay on K562 it was 242 nM (active) and 746 nM (active); with NCI/ADR-RES, > 100 µM (inactive); with SF-268 it was 1.83 µM (inactive); with RXF 393, 1.46 µM (inactive). Further, the GI50 in the assay on DU-145 is 2.15 µM (inactive) and 449 nM (active); with SN12C it was 2 µM (inactive) and 1.34 µM (inactive); in the assay with MCF7 it was 1.26 µM (inactive); in the assay on CAKI-1 it was 6.27 µM (inactive); with LOX IMVI, 130 nM (active) and 1.18 µM (inactive); in the assay on SF-295, 1.56 µM (inactive) and 1.47 µM (inactive). Also, the GI50 with A498 was 1.62 µM (inactive) and 1.61 µM (inactive); in the assay on A549, 1.82 µM (inactive) and 1.51 µM (inactive); in the assay on MDA-MB-231 it was 200 nM (active) and 2.02 µM (inactive); in the assay on HOP-92, 1.8 µM (inactive) and 1.13 µM (inactive); in the assay with NCI-H522 it was 340 nM (active) and 1.76 µM (inactive); with EKVX, 1.72 µM (inactive) and 1.77 µM (inactive).
For the compound `CCCCC(CCCC)=NNC(=S)SC`, the GI50 in the assay on SNB-75 was 27.5 µM (inactive); with HL-60, 20.7 µM (inactive); with K562 it was 29.6 µM (inactive); in the assay on NCI/ADR-RES it was 25.1 µM (inactive); in the assay on SF-268 it was 34.3 µM (inactive); in the assay with RXF 393, 65.3 µM (inactive). Moreover, the GI50 in the assay on DU-145 is 30.3 µM (inactive); in the assay on SN12C, 34.2 µM (inactive); with MCF7 it was 28.6 µM (inactive); with HT-29 it was 33.6 µM (inactive); with LOX IMVI, 27.3 µM (inactive); with A498, 39.4 µM (inactive). Also, the GI50 was 26.1 µM (inactive) with A549; 28.3 µM (inactive) in the assay with MDA-MB-231; 38.6 µM (inactive) in the assay on HOP-92; 17.1 µM (inactive) with NCI-H522; 87.3 µM (inactive) with EKVX.

The record behind these values is ChEMBL document CHEMBL1201862, “PubChem BioAssay data set” (2004).
